{
  "source": "patent US10105357B2",
  "about": "“Indication of antibiotic drugs for preparation of cancer inhibition pharmaceutical composition” (LAUNX BIOMEDICAL CO., LTD., priority 2014, dated 2018)",
  "key": {"[1]": {"test_system": "PC3 (p53−) (Prostate Adenocarcinoma)", "assay": "Cell viability analysis, prostate cancer PC3", "format": "cell-based, human", "details": "Homo sapiens, 72 h"}, "[2]": {"test_system": "BxPC-3", "assay": "Cell viability analysis, pancreatic cancer BxPC-3", "format": "cell-based, human", "details": "Homo sapiens, BXPC-3, 72 h, read-out: The results of antibiotic drug inhibiting cancer cell lines (cell viability analysis), BxPC-3"}, "[3]": {"test_system": "cancer cell lines", "assay": "Cell viability analysis (WST-1) on cancer cell lines", "format": "cell-based, human", "details": "drug 10 μM, 72 hours, WST-1; Table 3"}, "[4]": {"test_system": "HL-60 (Acute Promyelocytic Leukemia)", "assay": "Cell viability analysis, leukemia HL-60", "format": "cell-based, human", "details": "Homo sapiens, HL-60, 72 h, read-out: cell viability (survival rate), HL-60, drug 10 μM, 72 hours, WST-1, OD450 nm"}, "[5]": {"test_system": "MCF7 (Mammary Gland, Adenocarcinoma)", "assay": "Cell viability analysis, breast cancer MCF7", "format": "cell-based, human", "details": "Homo sapiens, MCF7, 72 h"}, "[6]": {"test_system": "MKN-45 (Gastric Adenocarcinoma)", "assay": "Cell viability analysis, gastric cancer MKN-45", "format": "cell-based, human", "details": "Homo sapiens, MKN-45, 72 h"}, "[7]": {"test_system": "TOV-21G", "assay": "Cell viability analysis, ovarian cancer TOV-21G", "format": "cell-based, human", "details": "Homo sapiens, TOV21G, 72 h, read-out: The results of antibiotic drug inhibiting cancer cell lines (cell viability analysis), TOV-21G"}, "[8]": {"test_system": "HeLa (Cervix Adenocarcinoma)", "assay": "Cell viability analysis, cervical cancer HeLa", "format": "cell-based, human", "details": "Homo sapiens, HeLa, 72 h"}, "[9]": {"test_system": "NIH: OVCAR-3", "assay": "Cell viability analysis, ovarian cancer NIH: OVCAR-3", "format": "cell-based, human", "details": "Homo sapiens, OVCAR-3, 72 h, read-out: The results of antibiotic drug inhibiting cancer cell lines (cell viability analysis), NIH-OVCAR-3"}, "[10]": {"test_system": "C-33A (Cervical carcinoma)", "assay": "Cell viability analysis, cervical cancer C-33A", "format": "cell-based, human", "details": "Homo sapiens, C-33-A, 72 h, read-out: The results of antibiotic drug inhibiting cancer cell lines (cell viability analysis), C-33A"}, "[11]": {"test_system": "LoVo (Colorectal Adenocarcinoma)", "assay": "Cell viability analysis, colon cancer LoVo", "format": "cell-based, human", "details": "Homo sapiens, LoVo, 72 h"}, "[12]": {"test_system": "T24", "assay": "Cell viability analysis, bladder cancer T24", "format": "cell-based, human", "details": "Homo sapiens, T-24, 72 h, read-out: The results of antibiotic drug inhibiting cancer cell lines (cell viability analysis), T24"}, "[13]": {"test_system": "MDA-MB-231 (Mammary Gland, Adenocarcinoma)", "assay": "Cell viability analysis, breast cancer MDA-MB-231", "format": "cell-based, human", "details": "Homo sapiens, MDA-MB-231, 72 h, read-out: The results of antibiotic drug inhibiting cancer cell lines (cell viability analysis), MDA-MB231"}, "[14]": {"test_system": "HI650 (Lung Adenocarcinoma)", "assay": "Cell viability analysis, lung cancer HI650", "format": "cell-based, human", "details": "Homo sapiens, NCI-H1650, 72 h"}, "[15]": {"test_system": "786-O (Renal adenocarcinoma)", "assay": "Cell viability analysis, renal cancer 786-O", "format": "cell-based, human", "details": "Homo sapiens, 786-0, 72 h, read-out: The results of antibiotic drug inhibiting cancer cell lines (cell viability analysis), 786-O"}, "[16]": {"test_system": "BCC (basal cell carcinoma)", "assay": "Cell viability analysis, skin cancer BCC", "format": "cell-based, human", "details": "Homo sapiens, 72 h, read-out: The results of antibiotic drug inhibiting cancer cell lines (cell viability analysis), BCC"}, "[17]": {"test_system": "SAS (Tongue squamous cell carcinoma)", "assay": "Cell viability analysis, tongue cancer SAS", "format": "cell-based, human", "details": "Homo sapiens, 72 h, read-out: The results of antibiotic drug inhibiting cancer cell lines (cell viability analysis), SAS"}, "[18]": {"test_system": "U-2OS", "assay": "Cell viability analysis, osteosarcoma U-2OS", "format": "cell-based, human", "details": "Homo sapiens, U2OS, 72 h, read-out: The results of antibiotic drug inhibiting cancer cell lines (cell viability analysis), U2OS"}, "[19]": {"test_system": "HCT116 (p53+) (Colorectal Carcinoma)"}, "[20]": {"test_system": "HepG2 (Hepatocellular Carcinoma)", "assay": "Cell viability analysis, hepatic cancer HepG2", "format": "cell-based, human", "details": "Homo sapiens, HepG2, 72 h"}, "[21]": {"test_system": "AGS (Gastric Adenocarcinoma)", "assay": "Cell viability analysis, gastric cancer AGS", "format": "cell-based, human", "details": "Homo sapiens, 72 h"}, "[22]": {"test_system": "A375 (Amelanotic Melanoma)", "assay": "Cell viability analysis, skin cancer A375", "format": "cell-based, human", "details": "Homo sapiens, A-375, 72 h"}, "[23]": {"test_system": "A549 (Lung Adenocarcinoma)", "assay": "Cell viability analysis, lung cancer A549", "format": "cell-based, human", "details": "Homo sapiens, A549, 72 h"}, "[24]": {"test_system": "AsPC-1", "assay": "Cell viability analysis, pancreatic cancer AsPC-1", "format": "cell-based, human", "details": "Homo sapiens, ASPC1, 72 h, read-out: The results of antibiotic drug inhibiting cancer cell lines (cell viability analysis), AsPC-1"}, "[25]": {"test_system": "Hep3B (hepatocellular carcinoma)", "assay": "Cell viability analysis, hepatic cancer Hep3B", "format": "cell-based, human", "details": "Homo sapiens, Hep3B, 72 h, read-out: The results of antibiotic drug inhibiting cancer cell lines (cell viability analysis), Hep3B"}},
  "note": "Like-named read-outs stand apart in the source and are kept apart here.",
  "data": [
    {"smiles": "Clc1ccc(C(Cn2ccnc2)OCc2ccsc2Cl)c(Cl)c1", "note": "(centres unmarked) [Tioconazole]", "values": [
      {"measurement": "viability at 10 µM", "setting": "[1]; read-out: The results of antibiotic drug inhibiting cancer cell lines (cell viability analysis), PC-3, PC-3, repeated experiment", "result": 104, "unit": "%"},
      {"measurement": "viability at 10 µM", "setting": "[1]; read-out: cell viability (survival rate), PC3, drug 10 μM, 72 hours, WST-1, OD450 nm", "result": 40.7, "unit": "%"},
      {"measurement": "viability at 10 µM", "setting": "[2]", "result": 69.2, "unit": "%"},
      {"measurement": "inhibition effect on different cancer cell lines", "setting": "[3]", "result": "significant inhibition effect"},
      {"measurement": "viability at 10 µM", "setting": "[4]", "result": 57.1, "unit": "%"},
      {"measurement": "viability at 10 µM", "setting": "[5]; read-out: The results of antibiotic drug inhibiting cancer cell lines (cell viability analysis), MCF-7, MCF-7, repeated experiment", "result": 97.8, "unit": "%"},
      {"measurement": "viability at 10 µM", "setting": "[5]; read-out: cell viability (survival rate), MCF7, drug 10 μM, 72 hours, WST-1, OD450 nm", "result": 48, "unit": "%"},
      {"measurement": "viability at 10 µM", "setting": "[6]; read-out: The results of antibiotic drug inhibiting cancer cell lines (cell viability analysis), MKN-45, MKN-45, repeated experiment", "result": 99.9, "unit": "%"},
      {"measurement": "viability at 10 µM", "setting": "[6]; read-out: cell viability (survival rate), MKN-45, drug 10 μM, 72 hours, WST-1, OD450 nm", "result": 61, "unit": "%"},
      {"measurement": "viability at 10 µM", "setting": "[7]", "result": 78.5, "unit": "%"},
      {"measurement": "viability at 10 µM", "setting": "[8]; read-out: The results of antibiotic drug inhibiting cancer cell lines (cell viability analysis), HeLa, repeated experiment", "result": 96.9, "unit": "%"},
      {"measurement": "viability at 10 µM", "setting": "[8]; read-out: cell viability (survival rate), HeLa, drug 10 μM, 72 hours, WST-1, OD450 nm", "result": 58.5, "unit": "%"},
      {"measurement": "viability at 10 µM", "setting": "[9]", "result": 92.5, "unit": "%"},
      {"measurement": "viability at 10 µM", "setting": "[10]", "result": 114, "unit": "%"},
      {"measurement": "viability at 10 µM", "setting": "[11]; read-out: The results of antibiotic drug inhibiting cancer cell lines (cell viability analysis), LoVo, repeated experiment", "result": 99.8, "unit": "%"},
      {"measurement": "viability at 10 µM", "setting": "[11]; read-out: cell viability (survival rate), LoVo, drug 10 μM, 72 hours, WST-1, OD450 nm", "result": 83.2, "unit": "%"},
      {"measurement": "viability at 10 µM", "setting": "[12]", "result": 88.8, "unit": "%"},
      {"measurement": "viability at 10 µM", "setting": "[13]", "result": 103, "unit": "%"},
      {"measurement": "viability at 10 µM", "setting": "[14]; read-out: The results of antibiotic drug inhibiting cancer cell lines (cell viability analysis), H1650, H1650, repeated experiment", "result": 90.3, "unit": "%"},
      {"measurement": "viability at 10 µM", "setting": "[14]; read-out: cell viability (survival rate), H1650, drug 10 μM, 72 hours, WST-1, OD450 nm", "result": 72.9, "unit": "%"},
      {"measurement": "viability at 10 µM", "setting": "[15]", "result": 75.6, "unit": "%"},
      {"measurement": "viability at 10 µM", "setting": "[16]", "result": 87.8, "unit": "%"},
      {"measurement": "viability at 10 µM", "setting": "[17]", "result": 93.6, "unit": "%"},
      {"measurement": "viability at 10 µM", "setting": "[18]", "result": 92.4, "unit": "%"},
      {"measurement": "viability", "setting": "[19]", "result": 103, "unit": "%"},
      {"measurement": "viability at 10 µM", "setting": "[20]; read-out: The results of antibiotic drug inhibiting cancer cell lines (cell viability analysis), HepG2, HepG2, repeated experiment", "result": 109, "unit": "%"},
      {"measurement": "viability at 10 µM", "setting": "[20]; read-out: cell viability (survival rate), HepG2, drug 10 μM, 72 hours, WST-1, OD450 nm", "result": 100, "unit": "%"},
      {"measurement": "viability at 10 µM", "setting": "[21]; read-out: The results of antibiotic drug inhibiting cancer cell lines (cell viability analysis), AGS, repeated experiment", "result": 120, "unit": "%"},
      {"measurement": "viability at 10 µM", "setting": "[21]; read-out: cell viability (survival rate), AGS, drug 10 μM, 72 hours, WST-1, OD450 nm", "result": 82.7, "unit": "%"},
      {"measurement": "viability at 10 µM", "setting": "[22]; read-out: The results of antibiotic drug inhibiting cancer cell lines (cell viability analysis), A375, A375, repeated experiment", "result": 97.8, "unit": "%"},
      {"measurement": "viability at 10 µM", "setting": "[22]; read-out: cell viability (survival rate), A375, drug 10 μM, 72 hours, WST-1, OD450 nm", "result": 60.9, "unit": "%"},
      {"measurement": "viability at 10 µM", "setting": "[23]; read-out: The results of antibiotic drug inhibiting cancer cell lines (cell viability analysis), A549, A549, repeated experiment", "result": 100, "unit": "%"},
      {"measurement": "viability at 10 µM", "setting": "[23]; read-out: cell viability (survival rate), A549, drug 10 μM, 72 hours, WST-1, OD450 nm", "result": 47.6, "unit": "%"},
      {"measurement": "viability at 10 µM", "setting": "[24]", "result": 80.1, "unit": "%"},
      {"measurement": "viability at 10 µM", "setting": "[25]", "result": 120, "unit": "%"}
    ]}
  ]
}
